Assay results from US12077503B2, “Substituted cyclic amides and their use as herbicides” (FMC CORPORATION, priority 2015, dated 2024).

How the values were obtained:
Assay type in all cases: in vivo
Kochia (Kochia scoparia) [1] = assay: Test A preemergence; details: for Plant response rating, Kochia: preemergence
Outline: (§1)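 Treatment is preemergence as a directed soil spray after planting, or postemergence at the one- to two-leaf stage, with test chemical in a non-phytotoxic solvent mixture plus surfactant. Plants stay in the greenhouse about 10 d before visual injury scoring on a 0 to 100 scale versus untreated controls.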

[2] = system: barnyardgrass (Echinochloa crus-galli); assay: Test A preemergence; details: for Plant response rating, Barnyardgrass: preemergence
Outline: as §1

[3] = system: giant foxtail (Setaria faberii); assay: Test A preemergence; details: for Plant response rating, Foxtail, Giant: preemergence
Outline: as §1

[4] = system: pigweed (Amaranthus retroflexus); assay: Test A preemergence; details: for Plant response rating, Pigweed: preemergence
[5] = system: ragweed (common ragweed, Ambrosia elatior); assay: Test A preemergence; details: for Plant response rating, Ragweed: preemergence
Outline: as §1

[6] = system: ryegrass, Italian (Italian ryegrass, Lolium multiflorum); assay: Test A preemergence; details: for Plant response rating, Ryegrass, Italian: preemergence
Outline: as §1

[7] = system: Galium (catchweed bedstraw, Galium aparine); assay: Test A postemergence; details: postemergence; for Galium plant response rating: visual injury rating on 0 to 100 scale (0 no effect, 100 complete control)
Outline: as §1

Kochia (Kochia scoparia) [8] = assay: Test A postemergence; details: postemergence; for Kochia plant response rating: visual injury rating on 0 to 100 scale (0 no effect, 100 complete control)
Outline: as §1

[9] = system: barnyardgrass (Echinochloa crus-galli); assay: Test A postemergence
Outline: as §1

[10] = system: blackgrass (Alopecurus myosuroides); assay: Test A postemergence
Outline: as §1

corn (Zea mays) = assay: Test A postemergence; details: postemergence; for Corn plant response rating: visual injury rating on 0 to 100 scale (0 no effect, 100 complete control)
Outline: as §1

[11] = system: giant foxtail (Setaria faberii); assay: Test A postemergence; details: postemergence; for Foxtail, Giant plant response rating: visual injury rating on 0 to 100 scale (0 no effect, 100 complete control)
Outline: as §1

[12] = system: pigweed (Amaranthus retroflexus); assay: Test A postemergence; details: postemergence; for Pigweed plant response rating: visual injury rating on 0 to 100 scale (0 no effect, 100 complete control)
Outline: as §1

[13] = system: ragweed (common ragweed, Ambrosia elatior); assay: Test A postemergence; details: postemergence; for Ragweed plant response rating: visual injury rating on 0 to 100 scale (0 no effect, 100 complete control)
Outline: as §1

[14] = system: ryegrass, Italian (Italian ryegrass, Lolium multiflorum); assay: Test A postemergence; details: postemergence; for Ryegrass, Italian plant response rating: visual injury rating on 0 to 100 scale (0 no effect, 100 complete control)
Outline: as §1

[15] = system: wheat (Triticum aestivum); assay: Test A postemergence; details: postemergence; for Wheat plant response rating: visual injury rating on 0 to 100 scale (0 no effect, 100 complete control)
Outline: as §1

[16] = system: barnyardgrass (Echinochloa crus-galli); assay: Test B flooded paddy test; details: Flood, 0 to 100 scale where 0 is no effect and 100 is complete control, 13 to 15 d
Outline: (§2)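 Rating scale 0–100 (visual, vs untreated controls) after a 13–15 d greenhouse period; application to the flood layer, 3 cm above soil and maintained; plants at 2-leaf stage when treated.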

[17] = system: ducksalad (Heteranthera limosa); assay: Test B flooded paddy test; details: Flood, 0 to 100 scale where 0 is no effect and 100 is complete control, 13 to 15 d
Outline: as §2

rice (Oryra sativa) = assay: Test B flooded paddy test; details: Flood, 0 to 100 scale where 0 is no effect and 100 is complete control, 13 to 15 d
Outline: as §2

[18] = system: sedge, umbrella (small-flower umbrella sedge, Cyperus difformis); assay: Test B flooded paddy test; details: Flood, 0 to 100 scale where 0 is no effect and 100 is complete control, 13 to 15 d
Outline: as §2

[19] = 125 g ai/ha, 0 to 100 scale (0 no effect, 100 complete control)
[20] = Preemergence, 500 g ai/ha, visual injury approx. 10 d
[21] = 500 g ai/ha, 0 to 100 scale, 0 no effect, 100 complete control
[22] = 125 g ai/ha, postemergence, visual injury rating on 0 to 100 scale (0 no effect, 100 complete control), approx. 10 d
[23] = 500 g ai/ha, postemergence, 0 to 100 scale, 0 no effect, 100 complete control
[24] = 125 g ai/ha, visual rating after approx. 10 d, 0 to 100 scale where 0 is no effect and 100 is complete control
[25] = 500 g ai/ha, 0 to 100 scale, 0 = no effect, 100 = complete control
[26] = 125 g ai/ha, visual injury after approximately 10 d, 0 to 100 scale (0 no effect, 100 complete control)
[27] = 500 g ai/ha, visual injury, 0 to 100 scale (0 no effect, 100 complete control), approx. 10 d
[28] = 125 g ai/ha, postemergence, visual injury after approximately 10 d, 0 to 100 scale (0 no effect, 100 complete control)
[29] = 500 g ai/ha, postemergence, visual injury, 0 to 100 scale (0 no effect, 100 complete control), approx. 10 d
[30] = Preemergence, 500 g ai/ha, 0 is no effect, 100 is complete control
[31] = Postemergence, 125 g ai/ha, visual injury, 0 to 100 scale (0 no effect, 100 complete control), approx. 10 d

CN1CC(c2ccc3c(c2)OC(F)(F)O3)C(C(=O)Nc2ccccc2F)C1=O (stereo not drawn) [Compound 441]
60: Corn plant response rating (corn (Zea mays); 125 g ai/ha, approx. 10 d) | Plant response rating, Pigweed [12, 21] | Ryegrass, Italian plant response rating ([14]; 125 g ai/ha, approx. 10 d) | Plant response rating, Ryegrass, Italian [14, 21]
50: Plant response rating, Pigweed [4, 19] | Galium plant response rating ([7]; 125 g ai/ha, approx. 10 d) | Plant response rating, Galium [7, 21] | Blackgrass plant response rating [10, 22] | Plant response rating, Ragweed [13, 21] | Wheat plant response rating ([15]; 125 g ai/ha, approx. 10 d)
30: Plant response rating, Ragweed [5, 19]
90: Plant response rating, Barnyardgrass [2, 19] | Barnyardgrass plant response rating (0 to 100 scale, 0 is no effect, 100 is complete control) [2, 20] | Plant response rating, Foxtail, Giant [3, 19] | Foxtail, Giant plant response rating (0 to 100 scale, 0 is no effect, 100 is complete control) [3, 20] | Plant response rating, Barnyardgrass [9, 23] | Plant response rating, Ducksalad ([17]; 250 g ai/ha)
0: Plant response rating, Rice (rice (Oryra sativa); 250 g ai/ha) | Plant response rating, Sedge, Umbrella ([18]; 250 g ai/ha)
70: Plant response rating, Kochia (Kochia (Kochia scoparia) [1]; [19]) | Pigweed plant response rating (0 to 100 scale, 0 is no effect, 100 is complete control) [4, 20] | Plant response rating, Ryegrass, Italian [6, 19] | Plant response rating, Kochia (Kochia (Kochia scoparia) [8]; [21]) | Plant response rating, Corn (corn (Zea mays); [21]) | Plant response rating, Barnyardgrass ([16]; 250 g ai/ha)
40: Kochia plant response rating (Kochia (Kochia scoparia) [8]; 125 g ai/ha, approx. 10 d) | Pigweed plant response rating ([12]; 125 g ai/ha, approx. 10 d)
80: Kochia plant response rating (0 to 100 scale, 0 is no effect, 100 is complete control) (Kochia (Kochia scoparia) [1]; [20]) | Ragweed plant response rating (0 to 100 scale, 0 is no effect, 100 is complete control) [5, 20] | Ryegrass, Italian plant response rating (0 to 100 scale, 0 is no effect, 100 is complete control) [6, 20] | Barnyardgrass plant response rating [9, 22] | Plant response rating, Blackgrass [10, 23] | Foxtail, Giant plant response rating ([11]; 125 g ai/ha, approx. 10 d) | Plant response rating, Foxtail, Giant [11, 21] | Plant response rating, Wheat [15, 21]
20: Ragweed plant response rating ([13]; 125 g ai/ha, approx. 10 d)

CC(=O)c1ccccc1NC(=O)C1C(=O)NCC1c1cccc(C(F)(F)F)c1 (racemic) [Compound 706]
0: Plant response rating, Kochia (Kochia (Kochia scoparia) [1]; [24]) | Plant response rating, Kochia (Kochia (Kochia scoparia) [1]; [25]) | Plant response rating, Barnyardgrass [2, 24] | Plant response rating, Foxtail, Giant [3, 24] | Plant response rating, Pigweed [4, 24] | Plant response rating, Pigweed [4, 25] | Plant response rating, Ragweed [5, 24] | Plant response rating, Ragweed [5, 25] | Plant response rating, Ryegrass, Italian [6, 24] | Plant response rating, Ryegrass, Italian [6, 25] | Plant response rating, Galium [7, 26] | Plant response rating, Galium [7, 27] | Plant response rating, Kochia (Kochia (Kochia scoparia) [8]; [26]) | Plant response rating, Kochia (Kochia (Kochia scoparia) [8]; [27]) | Plant response rating, Barnyardgrass [9, 28] | Plant response rating, Blackgrass [10, 28] | Plant response rating, Blackgrass [10, 29] | Plant response rating, Corn (corn (Zea mays); [26]) | Plant response rating, Corn (corn (Zea mays); [27]) | Plant response rating, Foxtail, Giant [11, 26] | Plant response rating, Pigweed [12, 26] | Plant response rating, Pigweed [12, 27] | Plant response rating, Ragweed [13, 26] | Plant response rating, Ragweed [13, 27] | Plant response rating, Ryegrass, Italian [14, 26] | Plant response rating, Ryegrass, Italian [14, 27] | Plant response rating, Wheat [15, 26] | Plant response rating, Wheat [15, 27] | Plant response rating, Barnyardgrass ([16]; 500 g ai/ha) | Plant response rating, Ducksalad ([17]; 500 g ai/ha) | Plant response rating, Sedge, Umbrella ([18]; 500 g ai/ha)
80: Plant response rating, Foxtail, Giant [3, 25]
15: Plant response rating, Rice (rice (Oryra sativa); 500 g ai/ha)
70: Plant response rating, Barnyardgrass [2, 25]
50: Plant response rating, Barnyardgrass [9, 29]
30: Plant response rating, Foxtail, Giant [11, 27]

O=C1NCC(c2cccc(OCC(F)F)c2)C1C(=O)Nc1ccc(F)cc1F (stereo not drawn) [Compound 388]
30: Plant response rating, Galium [7, 21] | Plant response rating, Barnyardgrass [9, 31]
50: Plant response rating, Blackgrass [10, 23] | Foxtail, Giant plant response rating ([11]; 125 g ai/ha, approx. 10 d)
75: Plant response rating, Ducksalad ([17]; 500 g ai/ha)
10: Plant response rating, Blackgrass [10, 31]
60: Plant response rating, Barnyardgrass [2, 19]
70: Plant response rating, Barnyardgrass [9, 23]
90: Foxtail, Giant plant response rating (0 to 100 scale) [3, 30]
80: Barnyardgrass plant response rating (0 to 100 scale) [2, 30] | Plant response rating, Foxtail, Giant [3, 19] | Plant response rating, Foxtail, Giant [11, 21]
0: Plant response rating, Kochia (Kochia (Kochia scoparia) [1]; [19]) | Kochia plant response rating (0 to 100 scale) (Kochia (Kochia scoparia) [1]; [30]) | Plant response rating, Pigweed [4, 19] | Pigweed plant response rating (0 to 100 scale) [4, 30] | Plant response rating, Ragweed [5, 19] | Ragweed plant response rating (0 to 100 scale) [5, 30] | Plant response rating, Ryegrass, Italian [6, 19] | Ryegrass, Italian plant response rating (0 to 100 scale) [6, 30] | Galium plant response rating ([7]; 125 g ai/ha, approx. 10 d) | Kochia plant response rating (Kochia (Kochia scoparia) [8]; 125 g ai/ha, approx. 10 d) | Plant response rating, Kochia (Kochia (Kochia scoparia) [8]; [21]) | Corn plant response rating (corn (Zea mays); 125 g ai/ha, approx. 10 d) | Plant response rating, Corn (corn (Zea mays); [21]) | Pigweed plant response rating ([12]; 125 g ai/ha, approx. 10 d) | Plant response rating, Pigweed [12, 21] | Ragweed plant response rating ([13]; 125 g ai/ha, approx. 10 d) | Plant response rating, Ragweed [13, 21] | Ryegrass, Italian plant response rating ([14]; 125 g ai/ha, approx. 10 d) | Plant response rating, Ryegrass, Italian [14, 21] | Wheat plant response rating ([15]; 125 g ai/ha, approx. 10 d) | Plant response rating, Wheat [15, 21] | Plant response rating, Barnyardgrass ([16]; 500 g ai/ha) | Plant response rating, Rice (rice (Oryra sativa); 500 g ai/ha) | Plant response rating, Sedge, Umbrella ([18]; 500 g ai/ha)
